Measured values as given in patent publication US9670521B2, “Amino acid derivatives” (priority 2012, dated 2017).
Where two headings read alike, the source gives them in different places.

Target: T1, pyIRS/tRNA pair (Methanosarcina mazei, UniProt Q8PWY1)
T1 construct: expressed in transfected cells
Type: cell-based
Settings: for GFP expression / incorporation in the GFP reporter (in words): GFP assay, HEK293 cells expressing pyIRS/tRNApyl and GFPY40, nnAA at 2 mM; for Positive GFP / Positive GFP Assay: HEK293 cells stably expressing pyIRS (3H7), tRNApyl + GFPY40 reporter, nnAA at 2 mM for 2-3 days; for Positive GFP: visual inspection under the microscope; for Positive GFP Assay: Formula VI analogs
Source text: An in vitro cell based assay was developed to assess the compatibility of the pyIRS/tRNA pair and the pyrrolysine analogs of the present invention (nnAAs) by and the efficiency of nnAAs integration into a target protein. For this, HEK293 cells stably expressing pyIRS (3H7) were transiently transfected with plasmids for the expression of tRNApyl and a reporter construct encoding GFPY40 (containing amber codon in place of tyrosine at amino acid residue number 40 (where 1 is the initiator methionine)) using standard transfection protocols. Transfected cells were incubated with nnAAs at 2 mM for 2-3 days GFP production was analyzed qualitatively by visual inspection under the microscope. The GFP fluorescence was quantified by flow cytometry using an Accuri flow cytometer and the geometric mean of the fluorescent cells determined.
This cell based assay was used to determine whether the different nnAAs were suitable substrates for the pyIRS and allowed its translation into a target protein. Cells expressing the PyIRS/tRNApyl pair and containing a vector encoding the GFPY40 reporter gene were incubated in the presence of the nnAAs. nnAAs that are readily utilized by the PyIRS/tRNApyl pair support the translation of the nnAA into the amber site of GFP and allow read-through of the gene producing full length GFP (fluorescent protein). The fluorescence intensity of the cells depends on the efficiency of nnAA incorporation. Thus, nnAAs that are poorly utilized produce weakly fluorescent or non-fluorescing cells. […] Furthermore, the relative expression levels in each sample was compared to those generated by substrates known to be efficiently utilized by pyIRS.

T1 sequence (Q8PWY1 whole entry): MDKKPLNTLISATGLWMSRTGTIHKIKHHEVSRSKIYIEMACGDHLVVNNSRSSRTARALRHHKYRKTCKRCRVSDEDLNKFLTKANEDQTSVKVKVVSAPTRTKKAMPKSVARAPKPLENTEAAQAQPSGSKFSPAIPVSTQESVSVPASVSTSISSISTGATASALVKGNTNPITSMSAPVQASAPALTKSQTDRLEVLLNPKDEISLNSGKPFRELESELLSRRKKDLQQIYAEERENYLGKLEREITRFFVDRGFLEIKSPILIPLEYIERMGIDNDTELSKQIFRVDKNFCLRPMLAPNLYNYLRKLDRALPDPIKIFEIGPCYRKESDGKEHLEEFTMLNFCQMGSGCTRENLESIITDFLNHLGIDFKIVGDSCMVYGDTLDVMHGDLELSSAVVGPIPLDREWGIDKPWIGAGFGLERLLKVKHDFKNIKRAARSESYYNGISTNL

SMILES | GFP expression / incorporation in the GFP reporter (in words) | Positive GFP | GFP expression / incorporation in the GFP reporter (in words) (listed as VI.1) | Positive GFP Assay
[N-]=[N+]=NCCOC(=O)NCCCC[C@H](N)C(=O)O [Formula V.1, (2S)-2-amino-6-{[(2-azidoethoxy)carbonyl]amino}hexanoic acid] | high levels of GFP expression | Yes |  | 
C#CCOC(=O)NCCCC[C@H](N)C(=O)O [Formula V.2, (2S)-2-amino-6-{[(prop-2-yn-1-yloxy)carbonyl]amino}hexanoic acid] | high levels of GFP expression | Yes |  | 
C=CCOC(=O)NCCCC[C@H](N)C(=O)O [Formula V.3, (2S)-2-amino-6-{[(prop-2-en-1-yloxy)carbonyl]amino}hexanoic acid] | high levels of GFP expression | Yes |  | 
[N-]=[N+]=NCCNC(=O)OCCCC[C@H](N)C(=O)O [Formula VI.1, (2S)-2-amino-6-{[(2-azidoethyl)carbamoyl]oxy}hexanoic acid] | high levels of GFP expression |  | yield green cells | Yes
C=CCNC(=O)OCCCC[C@H](N)C(=O)O [Formula VI.3, (2S)-2-amino-6-{[(prop-2-en-1-yl)carbamoyl]oxy}hexanoic acid] | yield green cells |  |  | Yes
